Experimental data reported in US8481561B2, “Classes of GABAA/BZR ligands” (Innovationspatent Sverige AB, priority 2008, dated 2013).
pKi: −log10 of the molar value.

Tests used:
benzodiazepine receptor = experiment: Displacement of 3H-flumazenil binding in rat cortical tissue (receptor binding); conditions: 3H-Flumazenil binding in vitro, rat cortical membranes; mean of three determinations
Protocol: Affinity of test substances for the benzodiazepine receptor was determined in vitro by displacement of ^3H-flumazenil in rat cortical tissue.

Row | Structure (SMILES) | pKi (benzodiazepine receptor) | melting point [°C]
1 | Cc1ccc2[nH]c3snc(-c4ccc(Br)cc4)c3c(=O)c2c1 [Compound 21, 3-(4-Bromophenyl)-6-methylisothiazolo[5,4-b]quinolin-4(9H)-one] | 8.28 | 357
2 | CCCC(=O)Nc1nsc2[nH]c3ccc(C)cc3c(=O)c12 [Compound 31, N-(6-methyl-4-oxo-4,9-dihydroisothiazolo[5,4-b]quinolin-3-yl)butanamide] | 8.70 | 
3 | Cc1ccc2[nH]c3onc(-c4ccccc4)c3c(=O)c2c1 [Compound 26, 6-Methyl-3-phenyl-isoxazolo[5,4-b]quinolin-4(9H)-one] | 7.74 | 
4 | Cc1ccc(-c2nsc3[nH]c4ccc(C)cc4c(=O)c23)cc1 [Compound 19, 6-Methyl-3-(4-methylphenyl)isothiazolo[5,4-b]quinolin-4(9H)-one] | 8.72 | 330
5 | Cc1ccc(-c2nsc3[nH]c4ccc(Br)cc4c(=O)c23)cc1 [Compound 24, 6-Bromo-3-(4-methylphenyl)isothiazolo[5,4-b]quinolin-4(9H)-one] | 8.54 | 331
6 | Cc1ccc2[nH]c3snc(-c4ccc([N+](=O)[O-])cc4)c3c(=O)c2c1 [Compound 23, 6-Methyl-3-(4-nitrophenyl)-isothiazolo[5,4-b]quinolin-4(9H)-one] | 8.26 | 343
7 | COc1ccc(-c2nsc3[nH]c4ccc(C)cc4c(=O)c23)cc1 [Compound 22, 3-(4-Methoxyphenyl)-6-methylisothiazolo[5,4-b]quinolin-4(9H)-one] | 8.70 | 
